Reference: patent US5567716A, “Trans and cis traumatic acid salts having cicatrizant activity associated to bacteriostatic, antiviral, antibiotic or antifungal activity” (priority 1992, dated 1996)
Like-named read-outs stand apart in the source and are kept apart here.

Columns and labels:
[1] = tested on: E.coli ATCC 35218; assay: microbe, parasite or virus in culture; type: cell-based; conditions: for MINIMAL BACTERIAL CONCENTRATION: Table 2.b)3, test concentrations given in μg/ml
Experimental: (§1) 1. Culture Medium: Tryprone Soy Broth (TBS) - Biogenetics
(§2) Microbic standard strains from American Type Culture Collection (ATCC) were used, chosen among aerobic Gram positive and negative as follows:
(§3) The broths culture of the different species are prepared growing the standard strain (kept in Tryptic Soy Agar (TSA) slent at 5° C.) in Tryptone Soy Broth (TSB) for 12 hours at 37° C. 10 ml are then taken up from each culture, centrifugated for 3 times at 3500 PM washing each time the sediment using 10 ml of sterile saline solution. The sediment is resuspended in the saline solution until obtainment of a turbidity corresponding to the Mc Farland standard solution (the suspension title must be […] UFC/ml).
(§4) The compounds, dissolved as stock solution, were added to test tubes containing 5 ml TBS in order to obtain the desired Final concentration 10000; 5000; 1000; 200; 40; 2; 0.4; 0.05 μg/ml (culture medium maximal dilution=1/10).
(§5) 50 μl of bacterial suspension are added to the tube containing the compounds to be tested and incubated at 37° C.: the densitometric determination is made in comparison with Mc Farland standard solution 24 and 48 hours later.
(§6) After the incubation time the suspensions ape gently agitated; 50 μl of each suspension are inoculated in tubes containing […] of TSB and incubated at 37° C.; the densitometric determination is made 48 hours later.
(§7) BMC is defined by comparison between the two densitometric evaluation.

[2] = for organic solvent solubility: dmso
[3] = tested on: Balb/C 3T3 fibroblasts; assay: Cell growth of Balb/C 3T3 fibroblasts, crystal violet colorimetry (1.1b); type: cell-based, Mouse; conditions: for promotion of cell growth: 10^-5 to 10^-7 M, lincomycin > rolitetracycline > erythromycin salt; for promotion of cell growth / cell growth effect compared to traumatic acid: in words; for cell growth t2/t1: 48 h/24 h, control 76.776
Experimental: Mouse Balb/C 3T3 fibroblasts were grown in DMEM medium supplemented with penicillin (100 units/ml) and streptomycin (0.1 mg/ml). For experimental purposes, cells are routinely inoculated in […] diameter culture dishes (5000cells/dish) and cultured overnight.
The compounds to be tested are solubilized in DMEM+10%FCS and DMSO to obtain the final concentration of 10^-5 M, 10^-6 M e 10^-7 M in 0.05% DMSO.
The cells number is measured 4, 24 and 48 hours after seeding. The cell growth is evaluated as t2/t1 ratio (%).

[4] = tested on: B.subtilis ATCC 6633; assay: Evaluation of bacteriostatic minimal concentration (BMC); type: cell-based; conditions: test concentrations given in μg/ml; for MINIMAL BACTERIAL CONCENTRATION: Table 2.b)5
Experimental: as §1, §2, §3, §4, §5, §6, §7

[5] = tested on: C.albicans ATCC 10231; assay: as above; type: cell-based; conditions: test concentrations given in μg/ml; for MINIMAL BACTERIAL CONCENTRATION: Table 2.b)6
Experimental: as §1, §2, §3, §4, §5, §6, §7

[6] = tested on: St.aureus ATCC 65380; assay: as above; type: cell-based; conditions: for MINIMAL BACTERIAL CONCENTRATION: Table 2.b)2, test concentrations given in μg/ml
Experimental: as §1, §2, §3, §4, §5, §6, §7

[7] = tested on: Ps.aeruginosa ATCC 35422; assay: as above; type: cell-based; conditions: for MINIMAL BACTERIAL CONCENTRATION: Table 2.b)1, test concentrations given in μg/ml
Experimental: as §1, §2, §3, §4, §5, §6, §7

[8] = tested on: St.epidermidis ATCC 14990; assay: as above; type: cell-based; conditions: test concentrations given in μg/ml; for MINIMAL BACTERIAL CONCENTRATION: Table 2.b)4
Experimental: as §1, §2, §3, §4, §5, §6, §7

[9] = tested on: fibroblast cells L929; assay: Cell growth of fibroblast L929 culture, crystal violet colorimetry (1.2); conditions: in words
Experimental: Mice fibroblast cells L929, clone derived from connective tissue, are suspended in Eagle's MEM with penicillin (100U/ml)--streptomycin (0.1 mg/ml), seeded in culture dishes (10000cells/dish) and cultured overnight. After 24 hours the culture medium was decantated and the tested compounds are added. The cellular density is measured after 4 (t0) and 24 (t1) hours of incubation at 37° C. in 5% CO2 air by colorimetry using crystal violet (exposure for 15 minutes, room temperature; absorbance 570 nm).
The cells number is measured at 4 (t0) and 24 (t1) hours from the seeding. The cell growth is evaluated at t1/t0 rate (%).

[10] = Physical chemical characteristics: solubility in water and organic solvents
[11] = 4 h (t0), 10^-5M, control 0.300
[12] = 4 h (t0), 10^-6M, control 0.300
[13] = 4 h (t0), 10^-7M, control 0.300
[14] = 24 h (t1), 10^-5M, control 0.481
[15] = 24 h (t1), 10^-6M, control 0.481
[16] = 24 h (t1), 10^-7M, control 0.481
[17] = 48 h (t2), 10^-5M, control 0.849
[18] = 48 h (t2), 10^-6M, control 0.849
[19] = 48 h (t2), 10^-7M, control 0.849

Molecule	MINIMAL BACTERIAL CONCENTRATION [1]	organic solvent solubility [2]	promotion of cell growth [3]	Cell density [3, 11]	Cell density [3, 12]	Cell density [3, 13]	Cell density [3, 14]	Cell density [3, 15]	Cell density [3, 16]	Cell density [3, 17]	Cell density [3, 18]	Cell density [3, 19]	cell growth t2/t1 ([3]; 10^-5M)	cell growth t2/t1 ([3]; 10^-6M)	cell growth t2/t1 ([3]; 10^-7M)	MINIMAL BACTERIAL CONCENTRATION [4]	MINIMAL BACTERIAL CONCENTRATION [5]	MINIMAL BACTERIAL CONCENTRATION [6]	MINIMAL BACTERIAL CONCENTRATION [7]	MINIMAL BACTERIAL CONCENTRATION [8]	other results
CCC[C@@H]1C[C@@H](C(=O)N[C@@H]([C@H]2O[C@H](SC)[C@H](O)[C@@H](O)[C@H]2O)[C@@H](C)O)N(C)C1.O=C(O)/C=C/CCCCCCCCC(=O)O (relative stereo) [Lincomycin Traumatate, lincomycin trans-traumatate]	10,000.00	> 10 mg/mL	capable to promote cell growth at all the tested doses	0.361	0.352	0.384	0.228	0.210	0.209	0.693	0.734	0.705	195.78%	246.29%	247.68%	1,000.00	10,000.00	10,000.00	10,000.00	200.00	solubility in water [2]: > 10 mg/mL; cell growth effect compared to traumatic acid [3]: more consistent if compared to the corresponding one of the parent compound traumatic acid
CC(C)(C)CC(C)(C)c1ccc(OCCOCC[N+](C)(C)Cc2ccccc2)cc1.CC(C)(C)CC(C)(C)c1ccc(OCCOCC[N+](C)(C)Cc2ccccc2)cc1.O=C([O-])/C=C/CCCCCCCCC(=O)[O-] [Benzethonium Traumatate, benzethonium trans-traumatate]	40.00	–	–	–	–	–	–	–	–	–	–	–	–	–	–	8.00	2.00	2.00	200.00	2.00	cell growth effect compared to traumatic acid [9]: higher than traumatic acid effect; promotion of cell growth (proliferation) ([9]; benzethonium > gentamycin salt): capable to promote cell growth (proliferation) according to dose-effect relationship
NC(=NCCCCCCN=C(N)N=C(N)Nc1ccc(Cl)cc1)N=C(N)Nc1ccc(Cl)cc1.O=C(O)/C=C/CCCCCCCCC(=O)O [Chlorhexidine Traumatate, chlorhexidine trans-traumatate]	8.00	> 10 mg/mL	–	–	–	–	–	–	–	–	–	–	–	–	–	2.00	2.00	8.00	40.00	2.00	–
CC[C@H]1OC(=O)[C@H](C)[C@@H](O[C@H]2C[C@@](C)(OC)[C@@H](O)[C@H](C)O2)[C@H](C)[C@@H](O[C@@H]2O[C@H](C)C[C@H](N(C)C)[C@H]2O)[C@](C)(O)C[C@@H](C)C(=O)[C@H](C)[C@@H](O)[C@]1(C)O.CC[C@H]1OC(=O)[C@H](C)[C@@H](O[C@H]2C[C@@](C)(OC)[C@@H](O)[C@H](C)O2)[C@H](C)[C@@H](O[C@@H]2O[C@H](C)C[C@H](N(C)C)[C@H]2O)[C@](C)(O)C[C@@H](C)C(=O)[C@H](C)[C@@H](O)[C@]1(C)O.O=C(O)/C=C/CCCCCCCCC(=O)O [Erythromycin Traumatate, Erythromycin trans-traumatate]	10,000.00	–	capable to promote cell growth at all the tested doses	0.370	0.352	0.344	0.365	0.369	0.368	0.919	0.921	1.074	159.16%	148.64%	196.81%	1,000.00	> 10,000	10,000.00	10,000.00	–	cell growth effect compared to traumatic acid [3]: more consistent if compared to the corresponding one of the parent compound traumatic acid; organic solvent solubility ([10]; in DMSO): > 10 mg/mL; organic solvent solubility ([10]; in ethanol): > 10 mg/mL; water solubility ([10]; water, in words): poorly soluble
NC[C@H]1O[C@H](O[C@H]2[C@H](O)[C@@H](O[C@H]3O[C@H](CO)[C@@H](O)[C@H](N)[C@H]3O)[C@H](N)C[C@@H]2N)[C@H](N)C[C@@H]1O.NC[C@H]1O[C@H](O[C@H]2[C@H](O)[C@@H](O[C@H]3O[C@H](CO)[C@@H](O)[C@H](N)[C@H]3O)[C@H](N)C[C@@H]2N)[C@H](N)C[C@@H]1O.O=C(O)/C=C/CCCCCCCCC(=O)O.O=C(O)/C=C/CCCCCCCCC(=O)O.O=C(O)/C=C/CCCCCCCCC(=O)O.O=C(O)/C=C/CCCCCCCCC(=O)O.O=C(O)/C=C/CCCCCCCCC(=O)O [Tobramycin Traumatate, tobramycin trans-traumatate]	200.00	> 10 mg/mL	–	–	–	–	–	–	–	–	–	–	–	–	–	–	–	1,000.00	5,000	–	solubility in water [2]: > 10 mg/mL
O=C([O-])/C=C/CCCCCCCCC(=O)[O-].[Zn+2] [Zinc Traumatate, zinc trans-traumatate]	–	–	–	–	–	–	–	–	–	–	–	–	–	–	–	–	–	–	–	–	MIC ([1]; Escherichia coli, ATCC35218, read-out: MINIMAL BACTERIAL CONCENTRATION): > 10000 µg/mL; MIC ([4]; Bacillus subtilis, ATCC6633; Table 2.b)5, read-out: MINIMAL BACTERIAL CONCENTRATION): > 10000 µg/mL; MIC ([5]; Candida albicans, ATCC10231; Table 2.b)6, read-out: MINIMAL BACTERIAL CONCENTRATION): > 10000 µg/mL; MIC ([6]; Staphylococcus aureus, ATCC65380, read-out: MINIMAL BACTERIAL CONCENTRATION): > 10000 µg/mL; MIC ([7]; Pseudomonas aeruginosa, ATCC35422, read-out: MINIMAL BACTERIAL CONCENTRATION): > 10000 µg/mL; MIC ([8]; Staphylococcus epidermidis, ATCC14990; Table 2.b)4, read-out: MINIMAL BACTERIAL CONCENTRATION): > 10000 µg/mL; solubility ([10]; 5% nh3): > 10 mg/mL; organic solvent solubility ([10]; in DMSO, in words): poorly soluble; organic solvent solubility ([10]; in ethanol, in words): poorly soluble; water solubility ([10]; water, in words): poorly soluble
rolitetracycline trans-traumatate [Rolitetracycline Traumatate]	1,000.00	–	capable to promote cell growth at all the tested doses	0.46	0.475	0.482	0.255	0.356	0.287	0.678	0.660	0.828	166.39%	186.69%	185.44%	40.00	1,000.00	5,000.00	10,000.00	200.00	cell growth effect compared to traumatic acid [3]: more consistent if compared to the corresponding one of the parent compound traumatic acid; organic solvent solubility ([10]; in DMSO): > 10 mg/mL; solubility in water ([10]; water): > 10 mg/mL
silver trans-traumatate [Silver Traumatate]	40.00	–	–	–	–	–	–	–	–	–	–	–	–	–	–	200.00	> 10,000	40.00	40.00	200.00	solubility in 5% NH3 ([2]; 5% nh3): > 10 mg/mL
